Several values for one entry are separate records, joined by “and”; a condition that tells them apart may be missing. Equal entries are not always repeated. Entries after “also recorded” stand apart in the source; their conditions may differ. Blank lines part the entries; values can stand above or below the compound they belong to.
What was measured:
[1] = Stability of the tetrazine moiety in ascorbate formulation; format: physicochemical
[2] = Dynamic micro PET-CT imaging, tracer uptake in brain, muscle and bone; format: in vivo, CD-1 mice; settings: for Bone uptake throughout the scan period (defluorination) / Uptake throughout the periphery of the body (liver, kidneys, heart) / Brain uptake after steady clearance of tracer / Clearance from the brain / Crossing of the blood-brain-barrier / Peak brain uptake / Time of peak brain uptake post injection: CD-1 male mice; for Bone uptake throughout the scan period (defluorination): 60-min scan; for Uptake throughout the periphery of the body (liver, kidneys, heart): PET; for Brain uptake after steady clearance of tracer: at 59.5 min post injection; for Clearance from the brain: by 60 minutes post injection, relative to muscle; for Crossing of the blood-brain-barrier / Peak brain uptake / Time of peak brain uptake post injection: dynamic PET; for Peak brain uptake / Time of peak brain uptake post injection: i.v.; for Bone Mean % ID/g / Brain Mean % ID/g / Muscle Mean % ID/g: male CD-1 mice, iv
Method: (§1) A Siemens Inveon® Multimodality Scanner (Siemens, Germany) is used for micro PET-CT imaging. Male CD-1 (6-week-old, ˜30 g) mice are anesthetized with 3% isoflurane/97% oxygen and placed on the bed of the scanner. The mice are administered [^18F]N-(4-(1,2,4,5-tetrazin-3-yl)benzyl)-2-fluoronicotinamide via a bolus intravenous tail vein injection (˜350 ρCi in a total volume of 150 μL saline). A total of four dynamic PET scans are conducted, followed by a short high-resolution CT scan for anatomical registration. PET images are generated for each minute of the acquisition time. Uptake of the tracer in the brain, muscle, and bone are determined by visually drawing regions of interest (ROIs) based on the fused PET/CT images and the corresponding activity values are determined using the Inveon® Research Workplace software. All values are represented as % injected dose per gram (% ID/g).
as §1, with “g) mice were anesthetized with” for “g) mice are anesthetized with”, “are administered [^18F]N-(4-(1,2,4,5-tetrazin-3-yl)benzyl)-6-fluoropicolinamide via a” for “are administered [^18F]N-(4-(1,2,4,5-tetrazin-3-yl)benzyl)-2-fluoronicotinamide via a”, “vein injection (˜300 ρCi in” for “vein injection (˜350 ρCi in”
as §1, with “PET/CT” for “PET-CT”, “30-40” for “˜30”, “[^18F]N-(4-(1,2,4,5-tetrazin-3-yl)benzyl)-6-fluoronicotinamide” for “[^18F]N-(4-(1,2,4,5-tetrazin-3-yl)benzyl)-2-fluoronicotinamide”, “(˜300” for “(˜350”, “two” for “four”

[3] = listed as [^18F]N-(4-(1,2,4,5-tetrazin-3-yl)benzyl)-2-fluoronicotinamide
[4] = listed as [^18F]N-(4-(1,2,4,5-tetrazin-3-yl)benzyl)-6-fluoropicolinamide

Reduction of the tetrazine moiety by ascorbate formulation [1]: readily reduced
Structure (SMILES): O=C(NCc1ccc(-c2nncnn2)cc1)c1cccnc1F [Example 1, N-(4-(1,2,4,5-tetrazin-3-yl)benzyl)-2-fluoronicotinamide]

Reduction of the tetrazine moiety by ascorbate formulation [1]: readily reduced | Bone uptake throughout the scan period (defluorination) [2]: remained low | Uptake throughout the periphery of the body (liver, kidneys, heart) [2]: observed | Brain uptake after steady clearance of tracer [2]: 1.2 % ID/g | Clearance from the brain [2, 3]: near background levels (muscle) | Crossing of the blood-brain-barrier [2]: readily cross the blood-brain-barrier | Peak brain uptake [2]: 3.3±0.4 % ID/g | Time of peak brain uptake post injection [2]: approximately 2 min | Peak brain uptake [2, 3]: 3.3±0.4 % ID/g and 3.3 % ID/g | Time of peak brain uptake post injection [2, 3]: 4.5 min
Structure (SMILES): O=C(NCc1ccc(-c2nncnn2)cc1)c1cccnc1[18F] [Example 2, [^18F]N-(4-(1,2,4,5-tetrazin-3-yl)benzyl)-2-fluoronicotinamide]
Clearance from the brain [2]: baseline levels defined by uptake in the muscle | Crossing of the blood-brain-barrier [2, 3]: readily cross the blood-brain-barrier; also recorded: readily crosses the blood-brain-barrier

Reduction of the tetrazine moiety by ascorbate formulation [1]: readily reduced
Structure (SMILES): O=C(NCc1ccc(-c2nncnn2)cc1)c1cccc(F)n1 [Example 3, N-(4-(1,2,4,5-tetrazin-3-yl)benzyl)-6-fluoropicolinamide]

Bone uptake throughout the scan period (defluorination) [2]: remained low | Uptake throughout the periphery of the body (liver, kidneys, heart) [2]: observed | Brain uptake after steady clearance of tracer [2]: 1.1 % ID/g | Clearance from the brain [2, 4]: near background levels (muscle) | Crossing of the blood-brain-barrier [2]: readily cross the blood-brain-barrier | Peak brain uptake [2]: 4.3±0.3 % ID/g | Time of peak brain uptake post injection [2]: approximately 2 min | Peak brain uptake [2, 4]: 4.3±0.3 % ID/g and 4.3 % ID/g | Time of peak brain uptake post injection [2, 4]: 2.5 min
Structure (SMILES): O=C(NCc1ccc(-c2nncnn2)cc1)c1cccc([18F])n1 [Example 4, [^18F]N-(4-(1,2,4,5-tetrazin-3-yl)benzyl)-6-fluoropicolinamide]
Clearance from the brain [2]: baseline levels defined by uptake in the muscle | Crossing of the blood-brain-barrier [2, 4]: readily cross the blood-brain-barrier; also recorded: readily crosses the blood-brain-barrier

Bone uptake throughout the scan period (defluorination) [2]: remained low | Uptake throughout the periphery of the body (liver, kidneys, heart) [2]: readily observed | Brain uptake after steady clearance of tracer [2]: 1.1 % ID/g | Crossing of the blood-brain-barrier [2]: crosses the blood-brain-barrier | Peak brain uptake [2]: 2.6 % ID/g | Time of peak brain uptake post injection [2]: 2.5 min | Bone Mean % ID/g ([2]; Time 0.5 min): 0.00 % ID/g | Brain Mean % ID/g ([2]; Time 0.5 min): 0.00 % ID/g | Muscle Mean % ID/g ([2]; Time 0.5 min): 0.00 % ID/g | Bone Mean % ID/g ([2]; Time 1.5 min): 0.09 % ID/g | Brain Mean % ID/g ([2]; Time 1.5 min): 0.52 % ID/g | Muscle Mean % ID/g ([2]; Time 1.5 min): 0.07 % ID/g | Bone Mean % ID/g ([2]; Time 2.5 min): 0.83 % ID/g | Brain Mean % ID/g ([2]; Time 2.5 min): 2.57 % ID/g | Muscle Mean % ID/g ([2]; Time 2.5 min): 0.56 % ID/g | Bone Mean % ID/g ([2]; Time 3.5 min): 0.95 % ID/g | Brain Mean % ID/g ([2]; Time 3.5 min): 2.45 % ID/g | Muscle Mean % ID/g ([2]; Time 3.5 min): 0.67 % ID/g | Bone Mean % ID/g ([2]; Time 4.5 min): 0.85 % ID/g | Brain Mean % ID/g ([2]; Time 4.5 min): 2.29 % ID/g | Muscle Mean % ID/g ([2]; Time 4.5 min): 0.73 % ID/g | Bone Mean % ID/g ([2]; Time 5.5 min): 0.86 % ID/g | Brain Mean % ID/g ([2]; Time 5.5 min): 2.20 % ID/g | Muscle Mean % ID/g ([2]; Time 5.5 min): 0.72 % ID/g | Bone Mean % ID/g ([2]; Time 6.5 min): 0.90 % ID/g | Brain Mean % ID/g ([2]; Time 6.5 min): 2.23 % ID/g | Muscle Mean % ID/g ([2]; Time 6.5 min): 0.80 % ID/g | Bone Mean % ID/g ([2]; Time 7.5 min): 0.90 % ID/g | Brain Mean % ID/g ([2]; Time 7.5 min): 2.15 % ID/g | Muscle Mean % ID/g ([2]; Time 7.5 min): 0.84 % ID/g | Bone Mean % ID/g ([2]; Time 8.5 min): 0.90 % ID/g | Brain Mean % ID/g ([2]; Time 8.5 min): 2.10 % ID/g | Muscle Mean % ID/g ([2]; Time 8.5 min): 0.84 % ID/g | Bone Mean % ID/g ([2]; Time 9.5 min): 0.81 % ID/g | Brain Mean % ID/g ([2]; Time 9.5 min): 2.00 % ID/g | Muscle Mean % ID/g ([2]; Time 9.5 min): 0.78 % ID/g | Bone Mean % ID/g ([2]; Time 10.5 min): 0.90 % ID/g | Brain Mean % ID/g ([2]; Time 10.5 min): 1.95 % ID/g | Muscle Mean % ID/g ([2]; Time 10.5 min): 0.79 % ID/g | Bone Mean % ID/g ([2]; Time 11.5 min): 0.92 % ID/g | Brain Mean % ID/g ([2]; Time 11.5 min): 1.89 % ID/g | Muscle Mean % ID/g ([2]; Time 11.5 min): 0.84 % ID/g | Bone Mean % ID/g ([2]; Time 12.5 min): 0.94 % ID/g | Brain Mean % ID/g ([2]; Time 12.5 min): 1.86 % ID/g | Muscle Mean % ID/g ([2]; Time 12.5 min): 0.84 % ID/g | Bone Mean % ID/g ([2]; Time 13.5 min): 0.97 % ID/g | Brain Mean % ID/g ([2]; Time 13.5 min): 1.83 % ID/g | Muscle Mean % ID/g ([2]; Time 13.5 min): 0.88 % ID/g | Bone Mean % ID/g ([2]; Time 14.5 min): 0.98 % ID/g | Brain Mean % ID/g ([2]; Time 14.5 min): 1.78 % ID/g | Muscle Mean % ID/g ([2]; Time 14.5 min): 0.88 % ID/g | Bone Mean % ID/g ([2]; Time 15.5 min): 0.98 % ID/g | Brain Mean % ID/g ([2]; Time 15.5 min): 1.76 % ID/g | Muscle Mean % ID/g ([2]; Time 15.5 min): 0.89 % ID/g | Bone Mean % ID/g ([2]; Time 16.5 min): 0.83 % ID/g | Brain Mean % ID/g ([2]; Time 16.5 min): 1.72 % ID/g | Muscle Mean % ID/g ([2]; Time 16.5 min): 0.93 % ID/g | Bone Mean % ID/g ([2]; Time 17.5 min): 1.00 % ID/g | Brain Mean % ID/g ([2]; Time 17.5 min): 1.69 % ID/g | Muscle Mean % ID/g ([2]; Time 17.5 min): 0.91 % ID/g | Bone Mean % ID/g ([2]; Time 18.5 min): 0.97 % ID/g | Brain Mean % ID/g ([2]; Time 18.5 min): 1.65 % ID/g | Muscle Mean % ID/g ([2]; Time 18.5 min): 0.89 % ID/g | Bone Mean % ID/g ([2]; Time 19.5 min): 0.93 % ID/g | Brain Mean % ID/g ([2]; Time 19.5 min): 1.63 % ID/g | Muscle Mean % ID/g ([2]; Time 19.5 min): 0.90 % ID/g | Bone Mean % ID/g ([2]; Time 20.5 min): 1.01 % ID/g | Brain Mean % ID/g ([2]; Time 20.5 min): 1.61 % ID/g | Muscle Mean % ID/g ([2]; Time 20.5 min): 0.95 % ID/g | Bone Mean % ID/g ([2]; Time 21.5 min): 0.91 % ID/g | Brain Mean % ID/g ([2]; Time 21.5 min): 1.58 % ID/g | Muscle Mean % ID/g ([2]; Time 21.5 min): 0.98 % ID/g | Bone Mean % ID/g ([2]; Time 22.5 min): 1.02 % ID/g | Brain Mean % ID/g ([2]; Time 22.5 min): 1.56 % ID/g | Muscle Mean % ID/g ([2]; Time 22.5 min): 0.95 % ID/g | Bone Mean % ID/g ([2]; Time 23.5 min): 1.04 % ID/g | Brain Mean % ID/g ([2]; Time 23.5 min): 1.55 % ID/g | Muscle Mean % ID/g ([2]; Time 23.5 min): 1.00 % ID/g | Bone Mean % ID/g ([2]; Time 24.5 min): 1.11 % ID/g | Brain Mean % ID/g ([2]; Time 24.5 min): 1.51 % ID/g | Muscle Mean % ID/g ([2]; Time 24.5 min): 0.98 % ID/g | Bone Mean % ID/g ([2]; Time 25.5 min): 0.93 % ID/g | Brain Mean % ID/g ([2]; Time 25.5 min): 1.49 % ID/g | Muscle Mean % ID/g ([2]; Time 25.5 min): 0.99 % ID/g | Bone Mean % ID/g ([2]; Time 26.5 min): 0.86 % ID/g | Brain Mean % ID/g ([2]; Time 26.5 min): 1.46 % ID/g | Muscle Mean % ID/g ([2]; Time 26.5 min): 0.95 % ID/g | Bone Mean % ID/g ([2]; Time 27.5 min): 0.94 % ID/g | Brain Mean % ID/g ([2]; Time 27.5 min): 1.45 % ID/g | Muscle Mean % ID/g ([2]; Time 27.5 min): 0.94 % ID/g | Bone Mean % ID/g ([2]; Time 28.5 min): 1.00 % ID/g | Brain Mean % ID/g ([2]; Time 28.5 min): 1.42 % ID/g | Muscle Mean % ID/g ([2]; Time 28.5 min): 1.00 % ID/g | Bone Mean % ID/g ([2]; Time 29.5 min): 1.05 % ID/g | Brain Mean % ID/g ([2]; Time 29.5 min): 1.40 % ID/g | Muscle Mean % ID/g ([2]; Time 29.5 min): 0.97 % ID/g | Bone Mean % ID/g ([2]; Time 30.5 min): 0.95 % ID/g | Brain Mean % ID/g ([2]; Time 30.5 min): 1.38 % ID/g | Muscle Mean % ID/g ([2]; Time 30.5 min): 0.99 % ID/g | Bone Mean % ID/g ([2]; Time 31.5 min): 1.04 % ID/g | Brain Mean % ID/g ([2]; Time 31.5 min): 1.38 % ID/g | Muscle Mean % ID/g ([2]; Time 31.5 min): 0.95 % ID/g | Bone Mean % ID/g ([2]; Time 32.5 min): 1.04 % ID/g | Brain Mean % ID/g ([2]; Time 32.5 min): 1.36 % ID/g | Muscle Mean % ID/g ([2]; Time 32.5 min): 0.97 % ID/g
Structure (SMILES): O=C(NCc1ccc(-c2nncnn2)cc1)c1ccc([18F])nc1 [Comparative Example 6, [^18]FN-(4-(1,2,4,5-tetrazin-3-yl)benzyl)-6-fluoronicotinamide]
